Test results from ChEMBL document CHEMBL4616595, “Targeted suppression of metastasis regulatory transcription factor SOX2 in various cancer cell lines using a sequence-specific designer pyrrole-imidazole polyamide” (Bioorg Med Chem, 2020).
Activity calls are given as the source filed them.

Tests used:
SOX2 promoter DNA [1] = test: Binding affinity to SOX2 promoter 5'-CTTTGTT-3' DNA in human SW620 cells assessed as down regulation of POU5F1 gene expression at 2 uM incubated for 48 hrs by Cy3-labelled cRNA-based microarray analysis; assay type: cell-based; details: SW-620
MKN-45 [2] = test: Antiproliferative activity against human MKN45 cells assessed as inhibition of cell proliferation incubated for 48 hrs by [3H]thymidine incorporation based scintillation counting method; assay type: functional
U2OS [3] = test: Antiproliferative activity against human U2OS cells assessed as inhibition of cell proliferation incubated for 48 hrs by [3H]thymidine incorporation based scintillation counting method; assay type: functional
SOX2 promoter DNA [4] = test: Binding affinity to SOX2 promoter 5'-CTTTGTT-3' DNA in human MCF7 cells assessed as reduction in SOX2 protein level incubated for 48 hrs by immunostaining based FACS analysis; assay type: cell-based
SOX2 promoter DNA [5] = test: Binding affinity to SOX2 promoter 5'-CTTTGTT-3' DNA in human SW620 cells assessed as down regulation of Cyclin D1 mRNA expression at 2 uM incubated for 48 hrs by qRT-PCR analysis; assay type: cell-based; details: SW-620
SOX2 promoter DNA [6] = test: Binding affinity to SOX2 promoter 5'-CTTTGTT-3' DNA in human SW620 cells assessed as down regulation of PROM1 gene expression at 2 uM incubated for 48 hrs by Cy3-labelled cRNA-based microarray analysis; assay type: cell-based; details: SW-620
MCF7 [7] = test: Cell cycle arrest in human MCF7 cells assessed as increase in accumulation at sub-G1/G1 phase at 2 uM to 5 uM after 48 hrs by propidium iodide staining based flow cytometry analysis; assay type: functional
SOX2 promoter DNA [8] = test: Binding affinity to SOX2 promoter 5'-CTTTGTT-3' DNA in human SW620 cells assessed as down regulation of VIM mRNA expression at 2 uM incubated for 48 hrs by qRT-PCR analysis; assay type: cell-based; details: SW-620
SOX2 promoter DNA [9] = test: Binding affinity to SOX2 promoter 5'-CTTTGTT-3' DNA in human PC3 cells assessed as reduction in SOX2 mRNA expression incubated for 48 hrs by qRT-PCR analysis; assay type: cell-based; details: PC-3
SOX2 promoter DNA [10] = test: Binding affinity to SOX2 promoter 5'-CTTTGTT-3' DNA in human MKN45 cells assessed as reduction in SOX2 mRNA expression incubated for 48 hrs by qRT-PCR analysis; assay type: cell-based; details: MKN-45
SOX2 promoter DNA [11] = test: Binding affinity to SOX2 promoter 5'-CTTTGTT-3' DNA in human SW620 cells assessed as downregulation of SNAIL2 mRNA expression at 2 uM incubated for 48 hrs by qRT-PCR analysis; assay type: cell-based; details: SW-620
SOX2 promoter DNA [12] = test: Binding affinity to SOX2 promoter 5'-CTTTGTT-3' DNA in human SW620 cells assessed as down regulation of CDH2 gene expression at 2 uM incubated for 48 hrs by Cy3-labelled cRNA-based microarray analysis; assay type: cell-based; details: SW-620
SOX2 promoter DNA [13] = test: Binding affinity to SOX2 promoter 5'-CTTTGTT-3' DNA in human SW620 cells assessed as downregulation SALL4 mRNA expression incubated for 48 hrs by qRT-PCR analysis; assay type: cell-based; details: SW-620
SOX2 promoter DNA [14] = test: Binding affinity to SOX2 promoter 5'-CTTTGTT-3' DNA in human SW620 cells assessed as up regulation of CDH1 mRNA expression at 2 uM incubated for 48 hrs by qRT-PCR analysis; assay type: cell-based; details: SW-620
SOX2 promoter DNA [15] = test: Binding affinity to SOX2 promoter 5'-CTTTGTT-3' DNA in human U2OS cells assessed as reduction in SOX2 protein level incubated for 48 hrs by immunostaining based FACS analysis; assay type: cell-based
U2OS [16] = test: Cytotoxicity against human U2OS cells assessed as reduction in cell viability incubated for 48 hrs by MTT assay; assay type: functional, cell-based
MCF7 [17] = test: Cell cycle arrest in human MCF7 cells assessed as reduction in accumulation at G2/M phase at 2 uM to 5 uM after 48 hrs by propidium iodide staining based flow cytometry analysis; assay type: functional
SOX2 promoter DNA [18] = test: Binding affinity to SOX2 promoter 5'-CTTTGTT-3' DNA in human SW620 cells assessed as upregulation of APC mRNA expression incubated for 48 hrs by qRT-PCR analysis; assay type: cell-based; details: SW-620
SW-620 [19] = test: Antimigratory activity in human SW620 cells assessed as reduction in cell migration at 5 uM incubated for 24 hrs by Calcein AM staining based fluorescence microscopic analysis relative to untreated control; assay type: functional
MKN-45 [20] = test: Cell cycle arrest in human MKN45 cells assessed as reduction in accumulation at G2/M phase at 2 uM to 5 uM after 48 hrs by propidium iodide staining based flow cytometry analysis; assay type: functional
SOX2 promoter DNA [21] = test: Binding affinity to SOX2 promoter 5'-CTTTGTT-3' DNA in human DU145 cells assessed as reduction in SOX2 mRNA expression incubated for 48 hrs by qRT-PCR analysis; assay type: cell-based; details: DU-145
SOX2 promoter DNA [22] = test: Binding affinity to SOX2 promoter 5'-CTTTGTT-3' DNA in human SW620 cells assessed as down regulation of JAG1 mRNA expression at 2 uM incubated for 48 hrs by qRT-PCR analysis; assay type: cell-based; details: SW-620
MKN-45 [23] = test: Cell cycle arrest in human MKN45 cells assessed as increase in accumulation at sub-G1/G1 phase at 2 uM to 5 uM after 48 hrs by propidium iodide staining based flow cytometry analysis; assay type: functional
SW-620 [24] = test: Up regulation of PUMA mRNA expression in human SW620 cells incubated for 48 hrs by qRT-PCR analysis; assay type: functional, cell-based
SW-620 [25] = test: Antiproliferative activity against human SW620 cells assessed as inhibition of cell proliferation incubated for 48 hrs by [3H]thymidine incorporation based scintillation counting method; assay type: functional
SOX2 promoter DNA [26] = test: Binding affinity to SOX2 promoter 5'-CTTTGTT-3' DNA in human ES2 cells assessed as reduction in SOX2 mRNA expression incubated for 48 hrs by qRT-PCR analysis; assay type: cell-based
U2OS [27] = test: Cell cycle arrest in human U2OS cells assessed as reduction in accumulation at G2/M phase at 2 uM to 5 uM after 48 hrs by propidium iodide staining based flow cytometry analysis; assay type: functional
SOX2 promoter DNA [28] = test: Binding affinity to SOX2 promoter 5'-CTTTGTT-3' DNA in human U2OS cells assessed as reduction in SOX2 mRNA expression incubated for 48 hrs by qRT-PCR analysis; assay type: cell-based
SOX2 promoter DNA [29] = test: Binding affinity to SOX2 promoter 5'-CTTTGTT-3' DNA in human MCF7 cells assessed as reduction in SOX2 mRNA expression incubated for 48 hrs by qRT-PCR analysis; assay type: cell-based
NHDF = test: Cytotoxicity against HDF cells assessed as effect on cell viability measured after 48 hrs by MTT assay; assay type: cell-based; details: human
SOX2 promoter DNA [30] = test: Binding affinity to SOX2 promoter 5'-CTTTGTT-3' DNA in human SW620 cells assessed as down regulation of VIM gene expression at 2 uM incubated for 48 hrs by Cy3-labelled cRNA-based microarray analysis; assay type: cell-based; details: SW-620
SOX2 promoter DNA [31] = test: Binding affinity to SOX2 promoter 5'-CTTTGTT-3' DNA in mouse Wehi3 cells assessed as reduction in SOX2 mRNA expression incubated for 48 hrs by qRT-PCR analysis; assay type: cell-based
SOX2 promoter DNA [32] = test: Binding affinity to SOX2 promoter 5'-CTTTGTT-3' DNA in human SW620 cells assessed as reduction in SOX2 mRNA expression incubated for 48 hrs by qRT-PCR analysis; assay type: cell-based; details: SW-620

CC(=O)Nc1cc(C(=O)Nc2cc(C(=O)Nc3cc(C(=O)NCCC(=O)Nc4cn(C)c(C(=O)Nc5cc(C(=O)NCCCC(=O)Nc6cc(C(=O)Nc7cc(C(=O)NCCC(=O)Nc8cc(C(=O)Nc9cc(C(=O)Nc%10cn(C)c(C(=O)NCCCN(C)C)n%10)n(C)c9)n(C)c8)n(C)c7)n(C)c6)n(C)c5)n4)n(C)c3)n(C)c2)n(C)c1
5: fold change (FC) (SW-620 [19])
Non-Toxic: Activity (NHDF)
active: Activity (SOX2 promoter DNA [1]) | inhibition (MKN-45 [2]) Dose-dependent effect | inhibition (U2OS [3]) Dose-dependent effect | Activity (SOX2 promoter DNA [4]) Dose-dependent effect | Activity (SOX2 promoter DNA [5]) | Activity (SOX2 promoter DNA [6]) | Activity (MCF7 [7]) | Activity (SOX2 promoter DNA [8]) | Activity (SOX2 promoter DNA [9]) | Activity (SOX2 promoter DNA [10]) | Activity (SOX2 promoter DNA [11]) | Activity (SOX2 promoter DNA [12]) | Activity (SOX2 promoter DNA [13]) | Activity (SOX2 promoter DNA [14]) | Activity (SOX2 promoter DNA [15]) Dose-dependent effect | Activity (U2OS [16]) Dose-dependent effect | Activity (MCF7 [17]) | Activity (SOX2 promoter DNA [18]) | Activity (MKN-45 [20]) | Activity (SOX2 promoter DNA [21]) | Activity (SOX2 promoter DNA [22]) | Activity (MKN-45 [23]) | Activity (SW-620 [24]) | inhibition (SW-620 [25]) Dose-dependent effect | Activity (SOX2 promoter DNA [26]) | Activity (U2OS [27]) | Activity (SOX2 promoter DNA [28]) | Activity (SOX2 promoter DNA [29]) | Activity (SOX2 promoter DNA [30]) | Activity (SOX2 promoter DNA [31]) | Activity (SOX2 promoter DNA [32])
